For data set [1], the target named is T1, Phosphotyrosine-protein phosphatase PTPB (Mycobacterium tuberculosis) (UniProt P96830).
T1 sequence (whole entry): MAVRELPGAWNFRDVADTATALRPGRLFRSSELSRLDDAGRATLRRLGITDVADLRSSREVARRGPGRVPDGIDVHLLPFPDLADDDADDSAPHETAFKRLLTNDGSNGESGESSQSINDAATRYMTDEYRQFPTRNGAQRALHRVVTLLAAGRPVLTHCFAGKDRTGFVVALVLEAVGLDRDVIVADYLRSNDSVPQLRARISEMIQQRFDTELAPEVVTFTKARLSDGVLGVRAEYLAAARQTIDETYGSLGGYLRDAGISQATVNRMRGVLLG
As to the kind of experiment: Inhibition of Mycobacterium tuberculosis PTPB expressed in Escherichia coli BL21 (DE3) assessed as residual activity at 100 uM using p-nitrophenyl phosphate as substrate relative to control.

Data set [2] concerns the target T2, Phosphotyrosine-protein phosphatase PTPB (Mycobacterium tuberculosis, UniProt P96830).
T2 sequence (P96830 whole entry): T1 sequence (whole entry)
Nature of the data set: Inhibition of Mycobacterium tuberculosis PTPB expressed in Escherichia coli BL21 (DE3) assessed as residual activity.

Data set [3] addresses T2, Phosphotyrosine-protein phosphatase PTPB. Nature of the data set: Inhibition of Mycobacterium tuberculosis PTPB expressed in Escherichia coli BL21 (DE3) in presence of DTT by PAINS assay.
For data set [4] the target is unchanged. Nature of the data set: Inhibition of Mycobacterium tuberculosis PTPB expressed in Escherichia coli BL21 (DE3) in presence of BSA by PAINS assay.
Data set [5] is described as follows: Cytotoxicity against human MRC5 cells assessed as reduction in cell viability at 200 to 0.02 uM measured after 96 hrs. In kind it is toxicity, cell-based.
Data set [6] in a line: Cytotoxicity against human WI-38 cells assessed as reduction in cell viability at 200 to 0.02 uM measured after 96 hrs. It counts as toxicity, cell-based.

On to `O=C(O)C(=O)/C(=C/c1ccccc1C(F)(F)F)c1ccc2ccccc2n1`, for which the Activity in data set [1] was found to be 24.3%. The IC50 stood at 48.1 µM in data set [2], 47 µM in data set [3] and 51.6 µM in data set [4]. The IC50 at 96 h in data set [5] and in data set [6] was > 200 µM throughout.
Turning to `O=C1OC(c2ccccc2C(F)(F)F)C(c2ccc3ccccc3n2)=C1O` (stereo in doubt; 1-E1) [listing 1 of 2 here], the IC50 in data set [2] is 31.1 µM.
As to `Cc1nc(-c2cccnc2-n2cnc(C(=O)O)c2)no1`, the Activity in data set [1] worked out at 83.2%.
`O=C(O)c1cc(-c2cc(Cl)ccc2Cl)[nH]n1`: the Activity in data set [1] amounted to 109%.
`O=C1OC(c2ccccc2C(F)(F)F)C(c2ccc3ccccc3n2)=C1O` (stereo in doubt; 1-E2) [listing 1 of 2 here]: the half-maximal inhibitory concentration (IC50) in data set [2] turned out to be 72.2 µM.
Take `CC(C)c1nnc(NC(=O)C(=O)O)s1`: in data set [1], the Activity worked out at 87.2%.
Same read-out and setting: for `COc1cccc(C2CC(O)=Nc3c(C(=O)O)cn(-c4cccc(F)c4)c32)c1OC` (stereo not drawn) the value was 101%; for `CC1(C)Cc2c(sc(NC(=O)C(=O)O)c2C(=O)O)CO1`, 104%; for `O=C1OC(c2ccccc2C(F)(F)F)C(c2ccc3ccccc3n2)=C1O` (stereo in doubt; 1-E2) [listing 2 of 2 here], 27.7%.
On to `O=C1OC(c2ccccc2C(F)(F)F)C(c2ccc3ccccc3n2)=C1O` (stereo in doubt; 1-E1) [listing 2 of 2 here], for which the Activity in data set [1] turned out to be 14.2%.
Take `CCOC(=O)c1c(NC(=O)C(=O)O)sc2c1CCCC2`: in data set [1], the Activity is 69.5%.
For `Cc1onc(C(=O)O)c1-c1cccc(-c2cc(Cl)c(O)c(Cl)c2)c1`, in data set [1], the Activity was found to be 10.9%. For the same compound, the IC50 in data set [2] was determined as 25.8 µM.

The record behind these values is ChEMBL document CHEMBL5154801, “Virtual screening and crystallographic studies reveal an unexpected γ-lactone derivative active against MptpB as a potential antitubercular agent” (Eur J Med Chem, 2022).
